According to patent US10966426B2, “Herbicidal compositions comprising phenylpyrimidines” (BASF SE, priority 2016, dated 2021):

Legend:
Assay type in all cases: in vivo
Avena fatua [1] = experiment: greenhouse pre-emergence treatment, AVEFA; details: Avena fatua, 480 h, 20 DAT, AVEFA
Procedure, shortened: (§1)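 Seeds were sown per species in pots of loamy sand with about 3.0% humus, sprayed with the aqueous spray liquor directly after sowing, watered and hooded until rooted, then kept at 10-25° C. or 20-35° C. for 2 to 4 weeks. Damage was scored 0 (none) to 100 (no emergence/complete destruction).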

Papaver rhoeas = experiment: greenhouse post-emergence treatment, PAPRH; details: Papaver rhoeas
Procedure, shortened: (§2)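 Seeds sown per species in pots of loamy sand; seedlings either grown in place or transplanted days before treatment. Post-emergence spray of water-based liquor at 3–15 cm height. Injury rated 0–100 over 2 to 4 weeks.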

Bromus sterilis = experiment: greenhouse post-emergence treatment, BROST; details: Bromus sterilis
Procedure, shortened: (§3)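 Scoring ran on a 0-100 scale, 100 meaning no emergence or destroyed above-ground parts, over a 2-4 week period; Colby formula E=X+Y−(X·Y/100) gave expected mixture effects. Species grew separately in loamy sand (about 3.0% humus) at 10-25° C or 20-35° C, with water as solvent.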

Brachiaria decumbens = experiment: greenhouse post-emergence treatment, BRADC; details: for % activity: cinmethylin solo (EC 750 g/l)
Procedure, shortened: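 Loamy sand, ~3.0% humus; species sown separately; treated at 3–15 cm height; 10% w/w EC diluted in water; 10-25° C./20-35° C. per species; 2–4 wk; visual 0–100 rating.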

Ambrosia elatior = experiment: greenhouse pre-emergence treatment, AMBEL; details: Ambrosia artemisiifolia, 480 h, 20 DAT, AMBEL
Procedure, shortened: as §1

Matricaria chamomilla = experiment: greenhouse post-emergence treatment, MATCH; details: MATCH
Procedure, shortened: as §2

Lolium multiflorum = experiment: greenhouse post-emergence treatment, LOLMU; details: Lolium multiflorum, LOLMU
Procedure, shortened: as §3

Avena fatua [2] = experiment: greenhouse post-emergence treatment, AVEFA; details: Avena fatua
Procedure, shortened: as §3

Setaria viridis = experiment: greenhouse post-emergence treatment, SETVI; details: Setaria viridis
Procedure, shortened: as §3

Polygonum convolvulus = experiment: greenhouse post-emergence treatment, POLCO; details: Fallopia convolvulus
Procedure, shortened: as §2

Alopecurus myosuroides = experiment: greenhouse post-emergence treatment, ALOMY; details: Alopecurus myosuroides, 480 h, 20 DAT, ALOMY
Procedure, shortened: as §3

[3] = 62.5 gai/ha (EC 750 g/l), Table X1, read-out: % activity, solo application
[4] = Urochloa decumbens, 504 h, read-out: % activity

Cc1ccccc1CO[C@@H]1C[C@@]2(C(C)C)CC[C@]1(C)O2 (racemic) [cinmethylin]
inhibition at 62.5 g/ha (Avena fatua [1]; [3]): 10% | pest or weed control at 62.5 g/ha (Papaver rhoeas; 504 h, PAPRH, 21 DAT, solo cinmethylin (EC 750 g/l) 62.5 gai/ha): 0% | pest or weed control at 125 g/ha (Papaver rhoeas; 504 h, read-out: % activity): 20% | pest or weed control at 250 g/ha (Papaver rhoeas; 504 h, read-out: % activity): 20% | pest or weed control at 500 g/ha (Papaver rhoeas; 504 h, read-out: % activity): 55% | pest or weed control at 62.5 g/ha (Bromus sterilis; 504 h, read-out: % activity): 10% | pest or weed control at 250 g/ha (Bromus sterilis; 504 h, read-out: % activity): 25% | pest or weed control at 125 g/ha (Brachiaria decumbens; Urochloa decumbens, 504 h, BRADC, 21 DAT, solo cinmethylin (EC 750 g/l) 125 gai/ha, read-out: % activity): 0% | pest or weed control at 500 g/ha (Brachiaria decumbens; Urochloa decumbens, 504 h, BRADC, 21 DAT, solo cinmethylin (EC 750 g/l) 500 gai/ha): 20% | pest or weed control at 62.5 g/ha (Brachiaria decumbens; [4]): 0% | pest or weed control at 250 g/ha (Brachiaria decumbens; [4]): 10% | % activity (Brachiaria decumbens; 125 gai/ha, 21 DAT, BRADC): 0% | % activity (Brachiaria decumbens; 500 gai/ha, 21 DAT, BRADC): 20% | percent weed control (herbicidal activity, 0-100 scale) at 62.5 g/ha (Ambrosia elatior; [3]): 0% | percent weed control (herbicidal activity, 0-100 scale) at 125 g/ha (Ambrosia elatior; 125 gai/ha (EC 750 g/l), Table X1, read-out: % activity, solo application): 0% | pest or weed control at 125 g/ha (Matricaria chamomilla; Matricaria chamomilla, 504 h, 21 DAT, solo cinmethylin (EC 750 g/l) 125 gai/ha): 0% | % activity (Matricaria chamomilla; cinmethylin solo (EC 750 g/l), 125 gai/ha, 21 DAT): 0% | pest or weed control at 62.5 g/ha (Lolium multiflorum; 504 h, 21 DAT, solo cinmethylin (EC 750 g/l) 62.5 gai/ha, read-out: % activity): 0% | pest or weed control at 125 g/ha (Lolium multiflorum; 504 h, 21 DAT, solo cinmethylin (EC 750 g/l) 125 gai/ha, read-out: % activity): 30% | pest or weed control at 125 g/ha (Avena fatua [2]; 504 h, read-out: % activity): 10% | pest or weed control at 125 g/ha (Setaria viridis; 504 h, SETVI, 21 DAT, solo cinmethylin (EC 750 g/l) 125 gai/ha): 55% | pest or weed control at 62.5 g/ha (Setaria viridis; 504 h, read-out: % activity): 20% | pest or weed control at 500 g/ha (Setaria viridis; 504 h, read-out: % activity): 85% | pest or weed control at 62.5 g/ha (Polygonum convolvulus; 504 h, read-out: % activity): 0% | pest or weed control at 125 g/ha (Polygonum convolvulus; 504 h, read-out: % activity): 0% | pest or weed control at 250 g/ha (Polygonum convolvulus; 504 h, read-out: % activity): 0% | pest or weed control at 500 g/ha (Polygonum convolvulus; 504 h, read-out: % activity): 0%

CSc1nnc(C(C)(C)C)c(=O)n1N [metribuzin]
inhibition at 31.25 g/ha (Avena fatua [1]; metribuzin WG 70% solo 31.25 gai/ha): 30% | pest or weed control at 17.5 g/ha (Papaver rhoeas; 480 h, solo, WG 70%, PAPRH, 17.5 gai/ha, 20 DAT): 60% | pest or weed control at 17.5 g/ha (Bromus sterilis; 480 h, solo, WG 70%, BROST, 17.5 gai/ha, 20 DAT): 25% | pest or weed control at 35 g/ha (Bromus sterilis; 480 h, solo, WG 70%, BROST, 35 gai/ha, 20 DAT): 55% | inhibition at 17.5 g/ha (Brachiaria decumbens; Urochloa decumbens, 480 h, 20 DAT, BRADC, metribuzin WG 70% solo 17.5 gai/ha): 50% | percent weed control (herbicidal activity, 0-100 scale) at 250 g/ha (Ambrosia elatior; metribuzin WG 70% solo 250 gai/ha): 60% | pest or weed control at 31.25 g/ha (Ambrosia elatior; solo, WG 70%, 31.25 gai/ha): 40% | pest or weed control at 62.5 g/ha (Ambrosia elatior; solo, WG 70%, 62.5 gai/ha): 40% | pest or weed control at 125 g/ha (Ambrosia elatior; solo, WG 70%, 125 gai/ha): 70% | inhibition at 17.5 g/ha (Alopecurus myosuroides; metribuzin WG 70% solo 17.5 gai/ha): 0% | inhibition at 35 g/ha (Alopecurus myosuroides; metribuzin WG 70% solo 35 gai/ha, read-out: % activity): 10% | pest or weed control at 17.5 g/ha (Alopecurus myosuroides; solo, WG 70%, 17.5 gai/ha): 0% | pest or weed control at 35 g/ha (Alopecurus myosuroides; solo, WG 70%, 35 gai/ha): 10% | inhibition at 17.5 g/ha (Matricaria chamomilla; Matricaria chamomilla, 480 h, 20 DAT, metribuzin WG 70% solo 17.5 gai/ha): 0% | inhibition at 35 g/ha (Matricaria chamomilla; Matricaria chamomilla, 480 h, 20 DAT, metribuzin WG 70% solo 35 gai/ha): 25% | pest or weed control at 17.5 g/ha (Matricaria chamomilla; Matricaria chamomilla, 480 h, solo, WG 70%, 17.5 gai/ha, 20 DAT): 0% | pest or weed control at 35 g/ha (Matricaria chamomilla; Matricaria chamomilla, 480 h, solo, WG 70%, 35 gai/ha, 20 DAT): 25% | pest or weed control at 17.5 g/ha (Lolium multiflorum; 480 h, solo, WG 70%, 17.5 gai/ha, 20 DAT): 20% | pest or weed control at 35 g/ha (Lolium multiflorum; 480 h, solo, WG 70%, 35 gai/ha, 20 DAT): 60% | pest or weed control at 70 g/ha (Lolium multiflorum; 480 h, solo, WG 70%, 70 gai/ha, 20 DAT): 65% | inhibition at 17.5 g/ha (Avena fatua [2]; 480 h, 20 DAT, AVEFA, metribuzin WG 70% solo 17.5 gai/ha): 5% | inhibition at 35 g/ha (Avena fatua [2]; 480 h, 20 DAT, AVEFA, metribuzin WG 70% solo 35 gai/ha): 10% | inhibition at 70 g/ha (Avena fatua [2]; 480 h, 20 DAT, AVEFA, metribuzin WG 70% solo 70 gai/ha): 40% | pest or weed control at 17.5 g/ha (Avena fatua [2]; 480 h, solo, WG 70%, AVEFA, 17.5 gai/ha, 20 DAT): 5% | pest or weed control at 35 g/ha (Avena fatua [2]; 480 h, solo, WG 70%, AVEFA, 35 gai/ha, 20 DAT): 10% | pest or weed control at 70 g/ha (Avena fatua [2]; 480 h, solo, WG 70%, AVEFA, 70 gai/ha, 20 DAT): 40% | pest or weed control at 17.5 g/ha (Setaria viridis; 480 h, solo, WG 70%, SETVI, 17.5 gai/ha, 20 DAT): 30% | inhibition at 17.5 g/ha (Polygonum convolvulus; 480 h, 20 DAT, POLCO, metribuzin WG 70% solo 17.5 gai/ha): 0% | inhibition at 35 g/ha (Polygonum convolvulus; 480 h, 20 DAT, POLCO, metribuzin WG 70% solo 35 gai/ha): 0% | inhibition at 70 g/ha (Polygonum convolvulus; 480 h, 20 DAT, POLCO, metribuzin WG 70% solo 70 gai/ha): 60% | inhibition at 140 g/ha (Polygonum convolvulus; 480 h, 20 DAT, POLCO, metribuzin WG 70% solo 140 gai/ha): 70%
